In ChEMBL document CHEMBL1201862, “PubChem BioAssay data set” (2004) one finds EC50, AC50 and IC50 data, which are given here for six compounds.

The target of assay [1] is Delta-type opioid receptor (Homo sapiens, UniProt P41143). In words: Counterscreen for agonists of heterodimerization of the mu 1 (OPRM1) and delta 1 (OPRD1) opioid receptors: Luminescence-based cell-based high throughput dose response assay to identify agonists of OPRD1 homodimerization. [Related pubchem assays (depositor defined):AID504326, AID504355, AID504692, AID504904, AID504905]. Format: functional. For orientation: The purpose of a counterscreen is to sort out artefacts and off-target activity.
Chain of Delta-type opioid receptor (P41143 whole entry): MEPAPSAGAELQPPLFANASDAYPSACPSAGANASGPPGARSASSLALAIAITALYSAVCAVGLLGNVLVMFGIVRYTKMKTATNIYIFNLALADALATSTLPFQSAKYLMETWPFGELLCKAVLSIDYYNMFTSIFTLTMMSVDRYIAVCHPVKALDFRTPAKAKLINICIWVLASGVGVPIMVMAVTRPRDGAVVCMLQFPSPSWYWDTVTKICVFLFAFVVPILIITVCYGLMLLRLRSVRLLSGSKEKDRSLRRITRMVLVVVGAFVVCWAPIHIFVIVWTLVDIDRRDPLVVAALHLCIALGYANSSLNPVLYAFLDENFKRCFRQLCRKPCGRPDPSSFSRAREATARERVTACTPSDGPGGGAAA

The target of assay [2] is 5-hydroxytryptamine receptor 5A (Homo sapiens, UniProt P47898). In words: Counterscreen for agonists of OPRM1-OPRD1 heterodimerization: luminescence-based cell-based high throughput dose response assay to identify agonists of 5-hydroxytryptamine (serotonin) 5A receptor (HTR5A). [Related pubchem assays (depositor defined):AID504326, AID504355, AID504692, AID504904, AID504905]. Format: functional.
Chain of 5-hydroxytryptamine receptor 5A (P47898 whole entry): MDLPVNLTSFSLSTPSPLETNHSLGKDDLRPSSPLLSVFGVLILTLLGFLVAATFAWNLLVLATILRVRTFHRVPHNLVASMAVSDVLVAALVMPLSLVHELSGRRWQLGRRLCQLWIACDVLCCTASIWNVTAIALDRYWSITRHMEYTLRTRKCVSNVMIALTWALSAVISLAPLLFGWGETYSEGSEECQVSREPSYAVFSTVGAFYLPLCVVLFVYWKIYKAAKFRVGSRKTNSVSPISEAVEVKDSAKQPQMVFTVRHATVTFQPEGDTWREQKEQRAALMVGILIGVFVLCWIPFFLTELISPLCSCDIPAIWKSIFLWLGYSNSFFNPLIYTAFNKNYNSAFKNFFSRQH

For assay [3], the target named is Mu-type opioid receptor (Homo sapiens, UniProt P35372). Kind of assay: Counterscreen for agonists of heterodimerization of the mu 1 (OPRM1) and delta 1 (OPRD1) opioid receptors: Luminescence-based cell-based high throughput dose response assay to identify agonists of OPRM1 homodimerization. Format: functional.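 Further: U2OS cells expressing OPRM1 and beta-arrestin as split beta-galactosidase partners.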
Chain of Mu-type opioid receptor (P35372 whole entry): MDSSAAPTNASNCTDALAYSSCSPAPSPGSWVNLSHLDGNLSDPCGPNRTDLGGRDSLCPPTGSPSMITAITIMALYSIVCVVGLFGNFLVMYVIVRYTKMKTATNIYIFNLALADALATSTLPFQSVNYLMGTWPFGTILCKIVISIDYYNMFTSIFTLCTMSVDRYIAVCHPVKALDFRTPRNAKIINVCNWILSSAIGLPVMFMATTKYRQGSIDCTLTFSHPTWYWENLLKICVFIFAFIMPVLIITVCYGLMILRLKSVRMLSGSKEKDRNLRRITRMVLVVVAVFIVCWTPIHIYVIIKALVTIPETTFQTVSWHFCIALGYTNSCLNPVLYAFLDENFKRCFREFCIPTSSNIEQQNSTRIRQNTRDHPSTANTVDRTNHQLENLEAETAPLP
Assay [4] can be described thus: Luminescence Cell-Based Dose Retest to Confirm Inhibitors of Cancer Stem Cells. [Related pubchem assays (depositor defined):AID2717, AID2721]. Format: functional. The settings on record: Homo sapiens.
Assay [5] is described as follows: inhibitors of firefly luciferase expression or activity, dose response, H4 neuroglioma cells, luminescence (AID 1990). In kind it is functional, cell-based.
The subject of assay [6] is HEK293. Kind of assay: cells. As to conditions: Homo sapiens.
The target of assay [7] is Luciferin 4-monooxygenase (Photinus pyralis, UniProt P08659). Kind of assay: firefly luciferase enzyme inhibitors, dose response, biochemical, luminescence (AID 1891).
Chain of Luciferin 4-monooxygenase (P08659 whole entry): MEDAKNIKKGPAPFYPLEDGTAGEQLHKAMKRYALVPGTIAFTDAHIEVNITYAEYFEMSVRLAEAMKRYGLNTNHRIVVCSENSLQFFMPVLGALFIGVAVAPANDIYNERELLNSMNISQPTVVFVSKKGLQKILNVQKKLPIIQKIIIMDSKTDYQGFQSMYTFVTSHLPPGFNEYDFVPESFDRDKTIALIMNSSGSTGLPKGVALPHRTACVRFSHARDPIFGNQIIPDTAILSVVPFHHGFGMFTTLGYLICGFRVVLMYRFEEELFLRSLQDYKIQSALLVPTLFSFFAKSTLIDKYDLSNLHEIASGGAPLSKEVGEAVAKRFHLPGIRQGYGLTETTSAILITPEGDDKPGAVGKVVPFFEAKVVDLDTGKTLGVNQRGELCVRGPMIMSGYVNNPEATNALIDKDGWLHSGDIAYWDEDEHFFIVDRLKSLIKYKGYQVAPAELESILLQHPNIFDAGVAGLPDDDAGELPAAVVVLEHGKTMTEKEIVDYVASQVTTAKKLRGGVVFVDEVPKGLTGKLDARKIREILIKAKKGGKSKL
The nature of assay [8]: Luminescence Cell-Based Dose Response HTS to Identify Inhibitors of 5'UTR Stem-Loop Driven Prion Protein mRNA Translation in H4 Neuroglioblastoma Cells. [Related pubchem assays: 1827 (Project Summary), 1813 (Primary HTS)]. In kind it is functional.
In assay [9] the target is T1, High affinity choline transporter 1 (Homo sapiens, UniProt Q9GZV3).
T1 sequence (Q9GZV3 whole entry): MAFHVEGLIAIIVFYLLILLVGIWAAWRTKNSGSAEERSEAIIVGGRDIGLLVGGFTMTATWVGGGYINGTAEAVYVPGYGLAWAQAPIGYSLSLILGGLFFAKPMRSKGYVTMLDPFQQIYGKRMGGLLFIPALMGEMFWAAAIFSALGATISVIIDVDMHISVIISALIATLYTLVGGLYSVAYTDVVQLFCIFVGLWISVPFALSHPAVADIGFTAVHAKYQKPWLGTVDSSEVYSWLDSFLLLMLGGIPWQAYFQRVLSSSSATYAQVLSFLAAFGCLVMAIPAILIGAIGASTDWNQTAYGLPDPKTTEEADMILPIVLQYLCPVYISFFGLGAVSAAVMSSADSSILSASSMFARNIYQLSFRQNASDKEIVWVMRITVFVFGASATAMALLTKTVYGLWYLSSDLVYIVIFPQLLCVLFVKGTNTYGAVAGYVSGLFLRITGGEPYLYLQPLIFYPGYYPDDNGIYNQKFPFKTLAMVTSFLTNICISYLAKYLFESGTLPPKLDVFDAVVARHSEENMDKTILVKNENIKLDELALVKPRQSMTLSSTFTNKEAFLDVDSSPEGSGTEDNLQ
Kind of assay: CHT inhibitors, dose response, cell-based, 5-point CRC, membrane potential dye (AID 504840). Format: functional.

Assay [10] in a line: Luminescence Cell-Based Dose Confirmation HTS to Identify Inhibitors of Platelet Dense Granule Release. [Related pubchem assays: 1663 (Primary HTS), 1678 (Summary of Project)]. Format: functional.
The nature of assay [11]: inhibitors of SNCA 5'UTR-driven reporter translation, confirmation, H4 neuroglioma cells, luminescence (AID 1988). In kind it is functional, cell-based.
For assay [12], the system named is HEK293. In words: cells. As to conditions: Homo sapiens. The source holds these as a separate data set.
Assay [13] has as its system Escherichia coli. In words: microbe, parasite or virus in culture.
Assay [14] relates to A-375. Kind of assay: MITF: Counter assay: A375 proliferation Measured in Cell-Based System Using Plate Reader - 2084-03_Inhibitor_Dose_DryPowder_Activity. [Related pubchem assays (depositor defined):AID488944]. The settings on record: Homo sapiens. In kind it is functional.
The target in assay [15] is T2, Microphthalmia-associated transcription factor (Homo sapiens, UniProt O75030).
T2 sequence (O75030 whole entry): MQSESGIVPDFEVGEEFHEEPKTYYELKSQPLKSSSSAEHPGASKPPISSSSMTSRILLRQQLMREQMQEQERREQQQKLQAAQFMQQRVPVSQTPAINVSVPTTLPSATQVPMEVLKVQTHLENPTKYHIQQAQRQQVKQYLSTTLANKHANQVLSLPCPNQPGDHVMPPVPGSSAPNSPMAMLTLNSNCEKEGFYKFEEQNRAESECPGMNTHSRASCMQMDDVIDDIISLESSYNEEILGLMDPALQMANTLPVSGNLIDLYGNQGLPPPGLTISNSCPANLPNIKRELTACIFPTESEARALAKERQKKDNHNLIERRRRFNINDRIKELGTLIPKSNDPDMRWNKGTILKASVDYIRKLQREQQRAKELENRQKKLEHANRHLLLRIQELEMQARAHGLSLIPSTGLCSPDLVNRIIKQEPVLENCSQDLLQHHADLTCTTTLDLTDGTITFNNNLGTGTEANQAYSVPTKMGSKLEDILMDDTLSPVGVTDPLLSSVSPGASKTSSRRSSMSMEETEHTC
In words: TRPM1 promoter luciferase signal decrease, dose response, MITF inhibitor project, cell-based, SK-MEL-5, cherry-picked, set 3 (AID 493073).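 Further: SK-MEL-5 melanoma cells with luciferase driven by the MITF target TRPM1 promoter.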 Format: functional.

In assay [16] the target is T3, Apoptotic protease-activating factor 1 (Homo sapiens, UniProt O14727).
T3 sequence (O14727 whole entry): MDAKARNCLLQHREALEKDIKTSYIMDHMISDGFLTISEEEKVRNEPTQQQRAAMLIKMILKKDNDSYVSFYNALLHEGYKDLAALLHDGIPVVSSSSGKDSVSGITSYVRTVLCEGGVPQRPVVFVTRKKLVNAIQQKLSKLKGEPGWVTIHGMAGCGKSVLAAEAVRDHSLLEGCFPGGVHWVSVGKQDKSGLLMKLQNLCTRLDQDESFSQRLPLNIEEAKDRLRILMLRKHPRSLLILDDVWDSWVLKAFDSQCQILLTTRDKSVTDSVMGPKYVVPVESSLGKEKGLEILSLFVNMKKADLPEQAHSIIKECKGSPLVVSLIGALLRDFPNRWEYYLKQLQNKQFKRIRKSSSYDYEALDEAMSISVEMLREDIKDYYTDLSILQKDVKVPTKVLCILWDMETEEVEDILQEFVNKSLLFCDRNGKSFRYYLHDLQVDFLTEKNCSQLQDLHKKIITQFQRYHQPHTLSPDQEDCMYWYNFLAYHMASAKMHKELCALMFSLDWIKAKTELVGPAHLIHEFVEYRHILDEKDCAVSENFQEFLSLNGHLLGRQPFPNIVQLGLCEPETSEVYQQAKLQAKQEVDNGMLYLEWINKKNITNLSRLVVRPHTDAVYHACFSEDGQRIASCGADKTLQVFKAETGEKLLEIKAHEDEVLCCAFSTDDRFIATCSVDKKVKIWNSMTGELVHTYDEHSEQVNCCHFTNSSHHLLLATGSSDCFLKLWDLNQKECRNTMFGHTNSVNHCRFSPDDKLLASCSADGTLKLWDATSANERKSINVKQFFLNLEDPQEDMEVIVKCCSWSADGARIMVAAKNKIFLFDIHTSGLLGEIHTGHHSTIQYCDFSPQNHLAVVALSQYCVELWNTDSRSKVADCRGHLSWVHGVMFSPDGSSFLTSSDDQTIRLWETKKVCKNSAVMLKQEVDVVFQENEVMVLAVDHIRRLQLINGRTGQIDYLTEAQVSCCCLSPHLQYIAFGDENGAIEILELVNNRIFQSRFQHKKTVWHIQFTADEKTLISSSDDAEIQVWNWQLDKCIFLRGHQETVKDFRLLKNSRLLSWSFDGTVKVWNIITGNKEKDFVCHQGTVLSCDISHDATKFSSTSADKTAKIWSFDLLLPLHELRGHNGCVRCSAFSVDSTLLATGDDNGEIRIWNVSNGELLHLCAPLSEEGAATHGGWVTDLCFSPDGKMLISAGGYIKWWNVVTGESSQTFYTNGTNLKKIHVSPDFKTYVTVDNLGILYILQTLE
Format: functional.

Assay [17] addresses T4, Protein RecA (Mycobacterium tuberculosis, UniProt P9WHJ3).
T4 sequence (P9WHJ3 whole entry): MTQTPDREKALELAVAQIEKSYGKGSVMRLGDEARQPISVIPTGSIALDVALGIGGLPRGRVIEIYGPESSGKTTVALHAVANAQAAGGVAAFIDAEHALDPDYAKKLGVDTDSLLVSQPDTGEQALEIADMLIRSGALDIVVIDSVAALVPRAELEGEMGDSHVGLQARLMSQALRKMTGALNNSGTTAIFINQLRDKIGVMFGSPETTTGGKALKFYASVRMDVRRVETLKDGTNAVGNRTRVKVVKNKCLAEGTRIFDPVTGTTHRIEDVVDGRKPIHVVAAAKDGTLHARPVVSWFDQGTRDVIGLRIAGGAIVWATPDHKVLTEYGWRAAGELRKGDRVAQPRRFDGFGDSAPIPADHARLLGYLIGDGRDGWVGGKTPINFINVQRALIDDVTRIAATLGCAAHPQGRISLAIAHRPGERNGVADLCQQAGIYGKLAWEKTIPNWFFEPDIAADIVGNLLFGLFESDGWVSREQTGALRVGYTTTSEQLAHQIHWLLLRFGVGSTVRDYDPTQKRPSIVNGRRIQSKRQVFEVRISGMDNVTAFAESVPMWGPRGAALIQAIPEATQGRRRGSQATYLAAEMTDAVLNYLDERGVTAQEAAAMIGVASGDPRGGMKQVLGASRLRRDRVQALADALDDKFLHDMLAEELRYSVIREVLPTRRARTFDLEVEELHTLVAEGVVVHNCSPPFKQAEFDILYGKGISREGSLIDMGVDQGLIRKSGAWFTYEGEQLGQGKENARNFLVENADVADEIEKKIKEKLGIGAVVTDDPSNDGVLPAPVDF
In words: Fluorescence Cell-Free Homogeneous Dose Retest to Identify Inhibitors of RecA-Intein Splicing Activity. [Related pubchem assays (depositor defined):AID2097, AID2223, AID489010, AID492950]. Format: functional.

In assay [18] the target is T5, Replicative DNA helicase DnaB (Mycobacterium tuberculosis, UniProt P9WMR3).
T5 sequence (P9WMR3 whole entry): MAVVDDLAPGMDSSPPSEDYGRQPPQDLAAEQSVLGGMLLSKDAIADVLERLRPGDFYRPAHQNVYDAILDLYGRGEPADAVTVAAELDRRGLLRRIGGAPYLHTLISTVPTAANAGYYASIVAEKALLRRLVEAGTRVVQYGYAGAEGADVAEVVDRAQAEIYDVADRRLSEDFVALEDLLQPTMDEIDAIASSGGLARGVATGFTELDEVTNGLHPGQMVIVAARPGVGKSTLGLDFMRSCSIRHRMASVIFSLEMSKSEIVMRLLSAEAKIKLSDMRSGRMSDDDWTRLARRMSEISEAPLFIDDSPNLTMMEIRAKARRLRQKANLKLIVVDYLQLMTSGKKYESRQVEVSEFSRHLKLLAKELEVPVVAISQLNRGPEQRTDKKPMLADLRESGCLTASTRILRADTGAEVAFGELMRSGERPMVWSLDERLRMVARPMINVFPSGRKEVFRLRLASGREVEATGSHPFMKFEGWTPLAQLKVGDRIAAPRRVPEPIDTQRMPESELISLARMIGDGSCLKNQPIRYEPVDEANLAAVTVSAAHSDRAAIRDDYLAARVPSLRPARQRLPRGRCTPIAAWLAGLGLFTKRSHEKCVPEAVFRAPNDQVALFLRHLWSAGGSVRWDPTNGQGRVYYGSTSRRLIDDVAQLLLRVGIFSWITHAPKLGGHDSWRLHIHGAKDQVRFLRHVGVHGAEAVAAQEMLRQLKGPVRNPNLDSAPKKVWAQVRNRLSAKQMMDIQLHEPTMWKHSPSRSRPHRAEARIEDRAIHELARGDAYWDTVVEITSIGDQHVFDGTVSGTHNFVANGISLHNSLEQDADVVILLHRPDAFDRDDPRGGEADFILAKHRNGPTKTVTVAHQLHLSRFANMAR
Kind of assay: DnaB intein splicing inhibitors, dose response, biochemical, cell-free fluorescence (AID 449749). Format: functional.

Calls of active or inactive are those of the source. Some results are limits rather than exact numbers.

As for `Cc1ccc2[nH]c(SC(C(=O)Nc3ccc(F)cc3)c3ccccc3)nc2c1` (configuration not stated), the EC50 in assay [1], in [2] and in [3] was > 92.5 µM (inactive) throughout.
As to `CC1(NC(=O)CC(c2ccccc2)(c2ccccc2)c2ccccc2)CCN(CCCc2ccccc2)C1=O` (configuration not stated), the EC50 in [1], in assay [2] and in assay [3] was > 92.5 µM (inactive) in each case. In addition, in assay [4], the AC50 (as a rule, the concentration at which the activity in the assay is half-maximal) is 5.42 µM (active).
For `COc1cc2c(cc1OC)-c1cc(NC3CCCCCCC3)nc(=O)n1CC2`, the EC50 (as a rule, the concentration that produces a half-maximal response) in assay [5] was 28.4 µM (active); in [6], > 59.7 µM (inactive); in [7] it was > 112 µM (not active); in assay [8], 0.18 µM (active); in assay [10] it was 6.92 µM (active); in [11], > 120 µM (not active). Besides, the EC50 in assay [12] is > 59.7 µM (inactive). In [9], the IC50 (usually the point on the concentration scale where inhibition reaches its midpoint) is 7.99 µM (active).
Regarding `CC1CN(S(=O)(=O)c2ccc(C(=O)Nc3ccccc3F)cc2)CC(C)O1` (configuration not stated), the AC50 in assay [13] was 25.1 µM (active).
Consider `CC1(C)CC(=O)C/C(=N\NC(=O)CCc2ccc(S(=O)(=O)N3CCOCC3)cc2)C1`, for which the AC50 in assay [13] was 44.6 µM (active).
Turning to `CC1=C(CC(=O)c2ccccc2)C(=O)c2ccccc2C1=O`, the AC50 in assay [14] is 42.7 µM (active); in assay [15], 7.15 µM (active); in assay [18], 18.7 µM (active). Moreover, the IC50 in [16] is 28.8 µM (active). Moreover, the EC50 in [17] is 3.45 µM (active).
